Reference: the supplement of paper PMC10307832

Key:
Experiment in all cases: relative viability (nuclei count vs DMSO), 5 days (fraction); higher = more cells survive
[1] = compound: C1CC(C1)(C(=O)O)C(=O)O.[NH2-].[NH2-].[Pt+2] [Carboplatin] + CC(=O)c1c(C)c2cnc(Nc3ccc(N4CCNCC4)cn3)nc2n(C2CCCC2)c1=O [Palbociclib] (partner 0.5 µM)
Procedure, shortened: (§1)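 Relative viability was taken as the ratio of nuclei in treated wells to nuclei in vehicle wells. Lung cancer cell lines in 1536-well plates received compounds by pin tool one day after seeding, either one drug alone or a fixed anchor-drug dose plus five library-drug doses (not always all listed) in √10 steps. Nuclei were counted on 4× images after 5 days of treatment, and values are medians of duplicate plates.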

Carboplatin + Phenformin = compound: C1CC(C1)(C(=O)O)C(=O)O.[NH2-].[NH2-].[Pt+2] [Carboplatin] + N=C(N)NC(=N)NCCc1ccccc1 [Phenformin] (partner 250 µM)
Procedure, shortened: as §1

GSK126 + Crizotinib = compound: CC[C@H](C)N1C=C(C2=C(C=C(C=C21)C3=CN=C(C=C3)N4CCNCC4)C(=O)NCC5=C(C=C(NC5=O)C)C)C [GSK126] + C[C@@H](Oc1cc(-c2cnn(C3CCNCC3)c2)cnc1N)c1c(Cl)ccc(F)c1Cl [Crizotinib] (partner 1 µM)
Procedure, shortened: as §1

MLN4924 + Bortezomib = compound: NS(=O)(=O)OC[C@@H]1C[C@@H](n2ccc3c(N[C@H]4CCc5ccccc54)ncnc32)C[C@@H]1O [MLN4924] + CC(C)C[C@H](NC(=O)[C@H](Cc1ccccc1)NC(=O)c1cnccn1)B(O)O [Bortezomib] (partner 0.002 µM)
Procedure, shortened: as §1

| Cell Line | relative viability ([1]; first compound 0.08 µM) | relative viability ([1]; first compound 0.253 µM) | relative viability ([1]; first compound 0.8 µM) | relative viability ([1]; first compound 2.53 µM) | relative viability ([1]; first compound 8 µM) | relative viability (Carboplatin + Phenformin; first compound 0.08 µM) | relative viability (Carboplatin + Phenformin; first compound 0.253 µM) | relative viability (Carboplatin + Phenformin; first compound 0.8 µM) | relative viability (Carboplatin + Phenformin; first compound 2.53 µM) | relative viability (Carboplatin + Phenformin; first compound 8 µM) | relative viability (GSK126 + Crizotinib; first compound 0.08 µM) | relative viability (GSK126 + Crizotinib; first compound 0.253 µM) | relative viability (GSK126 + Crizotinib; first compound 0.8 µM) | relative viability (GSK126 + Crizotinib; first compound 2.53 µM) | relative viability (GSK126 + Crizotinib; first compound 8 µM) | relative viability (MLN4924 + Bortezomib; first compound 0.04 µM) | relative viability (MLN4924 + Bortezomib; first compound 0.1265 µM) | relative viability (MLN4924 + Bortezomib; first compound 0.4 µM) | relative viability (MLN4924 + Bortezomib; first compound 1.265 µM) | relative viability (MLN4924 + Bortezomib; first compound 4 µM) |
| --- | --- | --- | --- | --- | --- | --- | --- | --- | --- | --- | --- | --- | --- | --- | --- | --- | --- | --- | --- | --- |
| NCI-H2342 | 0.514 | 0.483 | 0.482 | 0.531 | 0.526 | 0.759 | 0.709 | 0.616 | 0.638 | 0.615 |  |  |  |  |  |  |  |  |  |  |
| NCI-H2087 | 0.259 | 0.23 | 0.208 | 0.212 | 0.194 | 0.493 | 0.48 | 0.383 | 0.424 | 0.332 | 0.861 | 0.985 | 0.888 | 0.821 | 0.867 | 0.746 | 0.717 | 0.468 | 0.151 | 0.154 |
| NCI-H596 |  |  |  |  |  | 0.871 | 0.767 | 0.768 | 0.638 | 0.67 | 1.04 | 0.98 | 0.863 | 1.06 | 0.891 | 1.08 | 1.02 | 0.709 | 0.885 | 0.974 |
| ChaGo-K-1 | 0.913 | 0.937 | 0.837 | 0.749 | 0.535 | 0.459 | 0.508 | 0.467 | 0.381 | 0.392 | 0.998 | 1.09 | 0.976 | 1.14 | 1.12 | 0.535 | 0.53 | 0.436 | 0.337 | 0.278 |
| SW 1573 | 0.484 | 0.438 | 0.43 | 0.369 | 0.273 | 0.38 | 0.354 | 0.414 | 0.359 | 0.265 | 0.868 | 0.82 | 0.751 | 0.84 | 0.785 | 1.03 | 0.932 | 0.249 | 0.0788 | 0.0726 |
| LCLC-97TM1 | 0.206 | 0.211 | 0.257 | 0.211 | 0.206 | 0.483 | 0.399 | 0.421 | 0.438 | 0.394 | 0.337 |  | 0.42 | 0.475 | 0.441 | 0.403 | 0.46 | 0.107 | 0.046 | 0.0727 |
| HCC-366 | 0.484 | 0.401 | 0.339 | 0.233 | 0.152 | 0.619 | 0.637 | 0.662 | 0.575 | 0.467 | 0.652 | 0.548 | 0.549 | 0.475 | 0.431 | 1.04 | 1.01 | 0.911 | 0.293 | 0.0253 |
| HARA | 0.311 | 0.344 | 0.204 | 0.225 | 0.308 | 0.466 | 0.518 | 0.372 | 0.426 | 0.425 | 1.13 | 0.986 | 1.01 | 1.12 | 0.817 | 0.918 | 0.516 | 0.218 | 0.101 | 0.0858 |
| NCI-H1915 | 0.489 | 0.509 | 0.523 | 0.448 | 0.346 | 0.376 | 0.389 | 0.364 | 0.353 | 0.301 | 1.02 | 0.93 | 0.917 | 0.878 | 0.912 | 0.982 | 0.941 | 0.815 | 0.22 | 0.187 |
